System: human melanoma A375 cells
Assay: Cell proliferation, A375 (Example 4)
Format: cell-based
Settings: A-375, compound in 2-hydroxypropyl-β-cyclodextrin
Procedure: Human ovary cancer A2780 cells lines were seeded at a density of 5000 cells/well, human melanoma A375 cells were plated at a density of 2,500 cells/well, human colon carcinoma HCT15 cells were plated at a density of 3,000 cells/well, human prostate carcinoma PC3 cells were plated at a density of 1,500 cells/well, human breast carcinoma MCF7 cells were plated at a density of 5,000 cells/well, human breast carcinoma MDA MB 468 cells were plated at a density of 6,000 cells/well, human myeloma U266, RPMI8226 and CAG cells were plated at a density of 10,000 cells/well. All cells were plated in 96-well plates in 90 μl growth medium containing 10% FCS, 100 units/ml penicillin and 100 μg/ml streptomycin. Compound 3 was added a day later in […] of 1% DMSO in DDW to obtain final concentrations of 0, 0.1, 0.3, 1, 3, and 10 μM. The final concentration of DMSO (0.1% DMSO) was kept constant in all samples. […] The optical density values were read at 630 nm in ELISA plate reader. Non-adhered cells were exposed to WST-1 reagent for 5 hours following 72 hours treatment with the inhibitors, and optical density values were read at 630 nm in ELISA plate reader. The data was analyzed in Microsoft Excel, using the vehicle control as 100% proliferation. […]

Structure (SMILES) | IC50
O=c1c(O)cc2cnc(/C=C/c3cc(O)c(O)c(Br)c3)sc-2c1O [Compound 3] | 500 nM
O=c1c(O)cc2cnc(/C=C/c3ccc(O)c(O)c3Br)sc-2c1O [Compound 5] | 400 nM

— US9073880B2, “2-(2-phenylethenyl) 1,3-benzodiazepine derivatives useful for the treatment of cancer” (Yissum Research Development Company of the Hebrew …, priority 2010, dated 2015)
